Read-outs that look alike come from different tables or passages of the source. Non-standard residues stand in square brackets, D forms with d. Residues, ends and D or L forms follow the SMILES beside them. 1Nal = N[C@@H](Cc1cccc2ccccc12)C(=O)O; β3hI = CC[C@H](C)[C@H](N)CC(=O)O; hSer = N[C@@H](CCO)C(=O)O; Nle = CCCC[C@H](N)C(=O)O; Aib = CC(C)(N)C(=O)O; βAla = NCCC(=O)O
Molecular target: T1, human PTH-1 receptor (Homo sapiens, UniProt Q03431)
T1 construct: expressed in transfected cells; host or cells: HEK-293
T1 sequence (Q03431 27-593): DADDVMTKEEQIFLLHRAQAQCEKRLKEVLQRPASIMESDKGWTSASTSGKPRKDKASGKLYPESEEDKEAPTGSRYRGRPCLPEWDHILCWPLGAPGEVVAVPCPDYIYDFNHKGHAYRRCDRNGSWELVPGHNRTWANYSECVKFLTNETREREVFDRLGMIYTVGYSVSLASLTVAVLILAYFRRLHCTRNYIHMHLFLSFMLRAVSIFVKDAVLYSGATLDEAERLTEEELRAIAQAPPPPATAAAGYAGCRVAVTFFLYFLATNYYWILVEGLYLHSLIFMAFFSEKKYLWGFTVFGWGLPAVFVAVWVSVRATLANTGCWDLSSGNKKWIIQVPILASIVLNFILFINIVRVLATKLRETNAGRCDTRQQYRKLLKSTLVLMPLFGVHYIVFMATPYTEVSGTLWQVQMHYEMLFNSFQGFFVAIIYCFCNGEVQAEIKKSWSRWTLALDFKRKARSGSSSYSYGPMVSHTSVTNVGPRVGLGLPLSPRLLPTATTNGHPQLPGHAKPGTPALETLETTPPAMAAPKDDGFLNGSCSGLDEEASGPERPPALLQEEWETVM
Experiment: Reporter gene assay (CRE-luciferase) for agonist activity in transiently transfected HEK-293 cells
Type: cell-based
Details: for hPTHR-2/hPTHR-1: ratio of EC50 values, selectivity for hPTH-1 receptor over hPTH-2 receptor
Procedure: Agonist activity of compounds on the human PTH-1 receptor was determined in a reporter gene assay by transiently transfecting HEK-293 cells with plasmids encoding human PTH-1 receptor under control of the SV40 promoter and a luciferase reporter gene under control of cAMP responsive elements (CRE). See Himmler et al, J. Recept. Res. 13 (1993) 79-94, for further guidance on this assay. Transfected cells were exposed to serial dilutions of compounds for 4-5 hours followed by lysis of cells, determination of luciferase activity, and determination of compound efficacies and EC50 values through non-linear regression.
PTH (1-34) was used as an internal control in each experiment and compounds were tested in at least three independent experiments. To determine selectivity, compounds were tested in luciferase-based transcriptional reporter gene assays expressing the human PTH-2 receptor.

[1] = Table 3, HEK-293 cells, CRE-luciferase, 4-5 hours exposure, read-out: hPTHR-1 EC50

Row | EC50 [1] [nM] | SMILES | EC50 [nM] | selectivity for the hPTH-1 receptor over the hPTH-2 receptor (Table 3) [fold] | hPTHR-2/hPTHR-1 (Table 3)
1 | – | CCCC[C@H](NC(=O)[C@H](CC(C)C)NC(=O)[C@H](CCC(N)=O)NC(=O)[C@@H](NC(=O)[C@H](CCC(=O)O)NC(=O)[C@H](CO)NC(=O)[C@@H](NC(=O)C(C)(C)N)C(C)C)[C@@H](C)CC)C(=O)N[C@@H](Cc1c[nH]cn1)C(=O)N[C@@H](CC(N)=O)C(=O)N[C@@H](CC(C)C)C(=O)NCC(=O)N[C@@H](CCCCN)C(=O)N[C@@H](Cc1c[nH]cn1)C(=O)N[C@@H](CC(C)C)C(=O)N[C@@H](CC(N)=O)C(=O)NCCC(=O)N[C@@H](CCOC)C(=O)N[C@@H](CCC(=O)O)C(=O)N[C@@H](CCCNC(=N)N)C(=O)N[C@H](C(=O)N[C@@H](CCC(=O)O)C(=O)N[C@@H](Cc1cccc2ccccc12)C(=O)N[C@@H](CC(C)C)C(=O)N[C@@H](CCCNC(=N)N)C(=O)N[C@@H](CCCCN)C(=O)N[C@@H](CC(C)C)C(=O)N[C@@H](CC(C)C)C(=O)N[C@@H](CCC(N)=O)C(=O)N[C@@H](CC(=O)O)C(=O)N[C@H](C(=O)N[C@@H](Cc1c[nH]cn1)C(=O)N[C@@H](CC(N)=O)C(=O)N[C@@H](Cc1ccccc1)C(N)=O)C(C)C)C(C)C [SEQ ID NO: 3, [Aib^1, Nle^8, β-Ala^17, hSer(OMe)^18,1-Nal^23, Leu^27] hPTH (1-34)-NH2] (H-[Aib]VSEIQL[Nle]HNLGKHLN[βAla][hSer](Me)ERVE[1Nal]LRKLLQDVHNF-NH2; N-terminus assumed) | 0.06 | 766 | 766
2 | – | CCCC[C@H](NC(=O)[C@H](CC(C)C)NC(=O)[C@H](CCC(N)=O)NC(=O)[C@@H](NC(=O)[C@H](CCC(=O)O)NC(=O)[C@H](CO)NC(=O)[C@@H](NC(=O)C(C)(C)N)C(C)C)[C@@H](C)CC)C(=O)N[C@@H](Cc1c[nH]cn1)C(=O)N[C@@H](CO)C(=O)N[C@@H](CC(C)C)C(=O)NCC(=O)N[C@@H](CCCCN)C(=O)N[C@@H](Cc1c[nH]cn1)C(=O)N[C@@H](CC(C)C)C(=O)N[C@@H](CCCCN)C(=O)N[C@@H](CO)C(=O)N[C@H](CC(=O)N[C@@H](CCC(=O)O)C(=O)N[C@@H](CCCNC(=N)N)C(=O)N[C@H](C(=O)N[C@@H](CCC(=O)O)C(=O)N[C@@H](Cc1cccc2ccccc12)C(=O)N[C@@H](CC(C)C)C(=O)N[C@@H](CCCNC(=N)N)C(=O)N[C@@H](CCCCN)C(=O)N[C@@H](CC(C)C)C(=O)N[C@@H](CC(C)C)C(=O)N[C@@H](CCC(N)=O)C(=O)N[C@@H](CCCNC(=N)N)C(=O)N[C@H](C(=O)N[C@@H](Cc1c[nH]cn1)C(=O)N[C@@H](CCC(=O)O)C(=O)N[C@@H](CCC(=O)O)C(N)=O)C(C)C)C(C)C)[C@@H](C)CC [SEQ ID NO: 4, [Aib^1, Nle^8, Ser^10, Lys^16, β-hIle^18,1-Nal^23, Leu^27, Arg^30, Glu^33, Glu^34] hPTH (1-34)-NH2] (H-[Aib]VSEIQL[Nle]HSLGKHLKS[β3hI]ERVE[1Nal]LRKLLQRVHEE-NH2) | 0.04 | – | 110
3 | 0.21 | CCCC[C@H](NC(=O)[C@H](CO)NC(=O)[C@H](CC(N)=O)NC(=O)[C@H](CC(C)C)NC(=O)[C@H](Cc1c[nH]cn1)NC(=O)[C@H](CCCCN)NC(=O)CNC(=O)[C@H](CC(C)C)NC(=O)[C@H](CC(N)=O)NC(=O)[C@H](Cc1c[nH]cn1)NC(=O)[C@H](CCCC)NC(=O)[C@H](CC(C)C)NC(=O)[C@H](CCC(N)=O)NC(=O)[C@@H](NC(=O)[C@H](CCC(=O)O)NC(=O)[C@H](CO)NC(=O)[C@@H](NC(=O)[C@@H](N)CO)C(C)C)[C@@H](C)CC)C(=O)NCCC(=O)N[C@@H](CCCNC(=N)N)C(=O)N[C@H](C(=O)N[C@@H](CCC(=O)O)C(=O)N[C@@H](Cc1cccc2ccccc12)C(=O)N[C@@H](CC(C)C)C(=O)N[C@@H](CCCNC(=N)N)C(=O)N[C@@H](CCCCN)C(=O)N[C@@H](CCCCN)C(=O)N[C@@H](CC(C)C)C(=O)N[C@@H](CCC(N)=O)C(=O)N[C@@H](CC(=O)O)C(=O)N[C@H](C(=O)N[C@@H](Cc1c[nH]cn1)C(=O)N[C@@H](CC(N)=O)C(=O)N[C@@H](Cc1ccccc1)C(N)=O)C(C)C)C(C)C [SEQ ID NO: 7, [Nle^8,18, β-Ala^19,1-Nal^23] hPTH (1-34)-NH2] (H-SVSEIQL[Nle]HNLGKHLNS[Nle][βAla]RVE[1Nal]LRKKLQDVHNF-NH2) | – | – | 52
4 | 0.21 | CCCC[C@H](NC(=O)[C@H](CC(C)C)NC(=O)[C@H](CCC(N)=O)NC(=O)[C@@H](NC(=O)[C@H](CCC(=O)O)NC(=O)[C@H](CO)NC(=O)[C@@H](NC(=O)[C@@H](N)CO)C(C)C)[C@@H](C)CC)C(=O)N[C@@H](Cc1c[nH]cn1)C(=O)N[C@@H](CC(N)=O)C(=O)N[C@@H](CC(C)C)C(=O)NCC(=O)N[C@@H](CCCCN)C(=O)N[C@@H](Cc1c[nH]cn1)C(=O)N[C@@H](CC(C)C)C(=O)N[C@@H](CC(N)=O)C(=O)N[C@@H](CO)C(=O)N[C@H](CC(=O)N[C@@H](CCC(=O)O)C(=O)N[C@@H](CCCNC(=N)N)C(=O)N[C@H](C(=O)N[C@@H](CCC(=O)O)C(=O)N[C@@H](Cc1cccc2ccccc12)C(=O)N[C@@H](CC(C)C)C(=O)N[C@@H](CCCNC(=N)N)C(=O)N[C@@H](CCCCN)C(=O)N[C@@H](CCCCN)C(=O)N[C@@H](CC(C)C)C(=O)N[C@@H](CCC(N)=O)C(=O)N[C@@H](CC(=O)O)C(=O)N[C@H](C(=O)N[C@@H](Cc1c[nH]cn1)C(=O)N[C@@H](CC(N)=O)C(=O)N[C@@H](Cc1ccccc1)C(=O)O)C(C)C)C(C)C)[C@@H](C)CC [SEQ ID NO: 8, [Nle^8, β-hIle^18,1-Nal^23] hPTH (1-34)-OH] (H-SVSEIQL[Nle]HNLGKHLNS[β3hI]ERVE[1Nal]LRKKLQDVHNF-OH) | – | – | 124
5 | – | CCCC[C@H](NC(=O)[C@H](CC(C)C)NC(=O)[C@H](CCC(N)=O)NC(=O)[C@@H](NC(=O)[C@H](CCC(=O)O)NC(=O)[C@H](CO)NC(=O)[C@@H](NC(=O)[C@@H](N)CO)C(C)C)[C@@H](C)CC)C(=O)N[C@@H](Cc1c[nH]cn1)C(=O)N[C@@H](CC(N)=O)C(=O)N[C@@H](CC(C)C)C(=O)NCC(=O)N[C@@H](CCCCN)C(=O)N[C@@H](Cc1c[nH]cn1)C(=O)N[C@@H](CC(C)C)C(=O)N[C@@H](CC(N)=O)C(=O)N[C@@H](CO)C(=O)N[C@H](CC(=O)N[C@@H](CCC(=O)O)C(=O)N[C@@H](CCCNC(=N)N)C(=O)N[C@H](C(=O)N[C@@H](CCC(=O)O)C(=O)N[C@@H](Cc1cccc2ccccc12)C(=O)N[C@@H](CC(C)C)C(=O)N[C@@H](CCCNC(=N)N)C(=O)N[C@@H](CCCCN)C(=O)N[C@@H](CC(C)C)C(=O)N[C@@H](CC(C)C)C(=O)N[C@@H](CCC(N)=O)C(=O)N[C@@H](CC(=O)O)C(=O)N[C@H](C(=O)N[C@@H](Cc1c[nH]cn1)C(=O)N[C@@H](CC(N)=O)C(=O)N[C@@H](Cc1ccccc1)C(=O)O)C(C)C)C(C)C)[C@@H](C)CC [SEQ ID NO: 9, [Nle^8, β-hIle^18,1-Nal^23, Leu^27] hPTH (1-34)-OH] (H-SVSEIQL[Nle]HNLGKHLNS[β3hI]ERVE[1Nal]LRKLLQDVHNF-OH; N-terminus assumed) | 0.14 | – | 158
6 | – | CCCC[C@H](NC(=O)[C@H](CC(C)C)NC(=O)[C@H](CCC(N)=O)NC(=O)[C@@H](NC(=O)[C@H](CCC(=O)O)NC(=O)[C@H](CO)NC(=O)[C@@H](NC(=O)[C@@H](N)CO)C(C)C)[C@@H](C)CC)C(=O)N[C@@H](Cc1c[nH]cn1)C(=O)N[C@@H](CC(N)=O)C(=O)N[C@@H](CC(C)C)C(=O)NCC(=O)N[C@@H](CCCCN)C(=O)N[C@@H](Cc1c[nH]cn1)C(=O)N[C@@H](CC(C)C)C(=O)N[C@@H](CC(N)=O)C(=O)N[C@@H](CO)C(=O)N[C@H](CC(=O)N[C@@H](CCC(=O)O)C(=O)N[C@@H](CCCNC(=N)N)C(=O)N[C@H](C(=O)N[C@@H](CCC(=O)O)C(=O)N[C@@H](Cc1cccc2ccccc12)C(=O)N[C@@H](CC(C)C)C(=O)N[C@@H](CCCNC(=N)N)C(=O)N[C@@H](CCCCN)C(=O)N[C@@H](CC(C)C)C(=O)N[C@@H](CC(C)C)C(=O)N[C@@H](CCC(N)=O)C(=O)N[C@@H](CC(=O)O)C(=O)N[C@H](C(=O)O)C(C)C)C(C)C)[C@@H](C)CC [SEQ ID NO: 10, [Nle^8, β-hIle^18,1-Nal^23, Leu^27] hPTH (1-31)-OH] (H-SVSEIQL[Nle]HNLGKHLNS[β3hI]ERVE[1Nal]LRKLLQDV-OH) | 0.09 | – | 811
